Measured values reported in patent US10519162B2, “6,7-dihydropyrazolo[1,5-α]pyrazin-4(5H)-one compounds and their use as negative allosteric modulators of mGluR2 receptors” (Janssen Pharmaceutica NV, priority 2014, dated 2019).

What was measured:
human mGlu2 receptor = target: T1, human mGlu2 receptor (Homo sapiens, UniProt Q14416); assay: [35S]GTPγS binding assay (mGluR2 negative allosteric modulation, glutamate ~EC80 60 μM); assay type: biochemical; details: for Emax: read-out: GTPγS-hmGluR2 anGT Emax; for IC50: membranes from CHO cells transfected with human mGlu2 receptor, glutamate ~EC80 (60 μM), pIC50 = −log IC50 (M), read-out: GTPγS-hmGluR2 anGT pIC50 (converted)
T1 construct: expressed in transfected cells; host or cells: CHO cells
T1 sequence (Q14416 19-872): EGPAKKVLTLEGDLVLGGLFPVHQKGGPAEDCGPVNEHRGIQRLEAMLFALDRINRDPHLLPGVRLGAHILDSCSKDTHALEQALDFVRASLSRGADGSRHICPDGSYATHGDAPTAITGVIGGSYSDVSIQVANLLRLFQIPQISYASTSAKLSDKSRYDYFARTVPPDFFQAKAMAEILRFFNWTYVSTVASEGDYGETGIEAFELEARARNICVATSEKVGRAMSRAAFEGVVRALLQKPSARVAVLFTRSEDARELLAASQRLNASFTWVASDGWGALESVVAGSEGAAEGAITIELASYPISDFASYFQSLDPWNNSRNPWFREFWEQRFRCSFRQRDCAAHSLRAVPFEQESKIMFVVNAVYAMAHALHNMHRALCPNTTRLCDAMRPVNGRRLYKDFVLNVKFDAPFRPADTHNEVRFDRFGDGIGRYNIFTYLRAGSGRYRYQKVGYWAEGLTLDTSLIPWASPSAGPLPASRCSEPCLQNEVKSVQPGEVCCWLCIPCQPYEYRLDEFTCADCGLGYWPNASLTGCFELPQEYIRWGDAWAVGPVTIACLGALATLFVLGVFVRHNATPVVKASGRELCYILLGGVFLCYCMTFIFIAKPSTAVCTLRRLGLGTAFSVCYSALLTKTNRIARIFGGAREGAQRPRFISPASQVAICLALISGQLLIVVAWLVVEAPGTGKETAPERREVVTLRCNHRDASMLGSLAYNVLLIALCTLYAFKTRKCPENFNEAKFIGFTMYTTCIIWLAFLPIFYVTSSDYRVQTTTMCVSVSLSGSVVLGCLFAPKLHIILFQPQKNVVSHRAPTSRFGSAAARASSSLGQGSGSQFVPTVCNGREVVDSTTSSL
Description: 1) [^35S]GTPγS Binding Assay
[^35S]GTPγS Binding Assay
Total reaction volume was 200 μl. […] Membrane-bound radioactivity was counted in a Topcount.

[1] = maximal % inhibition relative to the control glutamate response (EC80 glutamate)

SMILES | Emax (human mGlu2 receptor; [1]) [%] | IC50 (human mGlu2 receptor) [M] | melting point [°C] | GTPγS-hmGluR2 anGT Emax (human mGlu2 receptor; [1]) [%]
COc1cccc(C(=O)Nc2cnn3c2C(=O)N(c2ccc(C(F)(F)F)cc2)C[C@@H]3C)n1 [Co. No. 21] | 106 | 4.68e-09 | 199.24 | 
COc1nc(N2C[C@H](C)n3ncc(NC(=O)c4ccccc4)c3C2=O)ccc1Cl [Co. No. 76, N-[(7S)-5-(5-Chloro-6-methoxy-2-pyridyl)-7-methyl-4-oxo-6,7-dihydropyrazolo[1,5-a]pyrazin-3-yl]benzamide] | 106 | 5.89e-08 | 188.77 | 
Cc1c(F)cncc1C(=O)Nc1cnn2c1C(=O)N(c1ccc(C(F)(F)F)cc1)C[C@@H]2C [Co. No. 136] | 106 | 2.45e-08 | 89.55 | 
C[C@H]1CN(c2ccc(C(F)(F)F)cc2)C(=O)c2c(NC(=O)c3cccc(O)c3)cnn21 [Co. No. 144] | 115 | 2.04e-09 | 240.46 | 
C[C@H]1CN(c2ccc(C(F)(F)F)c(CO)c2)C(=O)c2c(NC(=O)c3ccc(N)nc3)cnn21 [Co. No. 165] |  |  | 238.83 | 
C[C@@H]1CN(c2ccc(C(F)(F)F)cc2)C(=O)c2c(NC(=O)c3cccnc3)cnn21 [Co. No. 188] | 105 | 2.45e-07 | 152.2 | 
Cc1cc(C(=O)Nc2cnn3c2C(=O)N(c2ccc(C(F)(F)F)c(F)c2)C[C@@H]3C)cc(C)n1 [Co. No. 129] | 108 | 5.62e-09 | 148.36 | 
COc1cncc(C(=O)Nc2cnn3c2C(=O)N(c2ccc(Cl)cc2)C[C@@H]3C)c1 [Co. No. 137] | 106 | 1.74e-08 | 153.4 | 
Cc1cc(C(=O)Nc2cnn3c2C(=O)N(c2ccc(C(F)(F)F)cc2)C[C@@H]3C)c(C)cn1 [Co. No. 157] | 106 | 1.86e-08 |  | 
Cc1cc(N)ncc1C(=O)Nc1cnn2c1C(=O)N(c1ccc(C(F)(F)F)cc1)C[C@@H]2C [Co. No. 163, 6-Amino-4-methyl-N-[(7S)-7-methyl-4-oxo-5-[4-(trifluoromethyl)phenyl]-6,7-dihydropyrazolo[1,5-a]pyrazin-3-yl]pyridine-3-carboxamide] | 106 | 2.57e-09 | 226.06 | 
COc1ccc(F)c(C(=O)Nc2cnn3c2C(=O)N(c2ccc(C(F)(F)F)cc2)C[C@@H]3C)c1 [Co. No. 37] | 116 | 9.12e-09 | 185.41 | 
COCC1CN(c2ccc(C(F)(F)F)cc2)C(=O)c2c(NC(=O)c3ccccc3F)cnn21 (single isomer, unassigned) [Co. No. 62b] |  | 4.79e-06 | 162.51 | 66
Cc1cc(C(=O)Nc2cnn3c2C(=O)N(c2ccc(Cl)cc2)C[C@@H]3C)cc(C)n1 [Co. No. 132] | 112 | 8.71e-09 |  | 
C[C@H]1CN(c2ccc(C(F)(F)F)c(CF)c2)C(=O)c2c(NC(=O)c3ccc(N)nc3)cnn21 [Co. No. 5, 6-Amino-N-[(7S)-5-[3-(fluoromethyl)-4-(trifluoromethyl)phenyl]-7-methyl-4-oxo-6,7-dihydropyrazolo[1,5-a]pyrazin-3-yl]pyridine-3-carboxamide] | 107 | 2.4e-09 |  | 
Cc1nccc(C(=O)Nc2cnn3c2C(=O)N(c2ccc(C(F)(F)F)cc2)C[C@@H]3C)c1C [Co. No. 154] | 105 | 6.03e-08 |  | 
COc1nc(N2C[C@H](C)n3ncc(NC(=O)c4ccc(N)nc4)c3C2=O)ccc1Cl [Co. No. 65] | 111 | 2.69e-08 |  | 
Cc1cnc(N)c(C(=O)Nc2cnn3c2C(=O)N(c2ccc(SC(F)(F)F)cc2)C[C@@H]3C)c1 [Co. No. 207] |  |  | 172.9 | 
COc1cccc(F)c1C(=O)Nc1cnn2c1C(=O)N(c1ccc(C(F)(F)F)cc1)C[C@@H]2C [Co. No. 41] | 109 | 1.05e-08 |  | 
COCC1CN(c2ccc(C(F)(F)F)c(Cl)c2)C(=O)c2c(NC(=O)c3ccc(N)nc3)cnn21 (centres unmarked) [Co. No. 140] |  |  | 230.27 | 
Cc1cncc(C(=O)Nc2cnn3c2C(=O)N(c2ccc(Cl)cc2)C[C@@H]3C)c1 [Co. No. 131] | 107 | 1.66e-08 |  | 
COCC1CN(c2ccc(C(F)(F)F)c(Cl)c2)C(=O)c2c(NC(=O)c3ccc(N)nc3)cnn21 (centres unmarked) [Co. No. 141] |  |  | 230.4 | 
Cc1cc(C(=O)Nc2cnn3c2C(=O)N(c2ccc(C(F)(F)F)cc2)C[C@@H]3C)cc(CF)n1 (racemic) [Co. No. 209] |  |  | 157.37 | 

The next lines start with the values.

Emax (human mGlu2 receptor; [1]) [%] | IC50 (human mGlu2 receptor) [M] | melting point [°C] | GTPγS-hmGluR2 anGT Emax (human mGlu2 receptor; [1]) [%] | SMILES
111 | 2.45e-08 | 227.69 |  | COc1ccnc(C(=O)Nc2cnn3c2C(=O)N(c2ccc(C(F)(F)F)cc2)C[C@@H]3C)c1 [Co. No. 60]
108 | 5.89e-10 |  |  | Cc1cc(C(=O)Nc2cnn3c2C(=O)N(c2ccc(C(F)(F)F)c(Cl)c2)C[C@@H]3C)cnc1N [Co. No. 169, 6-Amino-N-[(7S)-5-[3-chloro-4-(trifluoromethyl)phenyl]-7-methyl-4-oxo-6,7-dihydropyrazolo[1,5-a]pyrazin-3-yl]-5-methyl-pyridine-3-carboxamide]
101 | 1.12e-07 | 277.42 |  | C[C@H]1CN(c2ccc(C(F)(F)F)cc2)C(=O)c2c(NC(=O)c3c[nH]cn3)cnn21 [Co. No. 83]
98 | 4.79e-08 | 152.2 |  | C[C@H]1CN(c2ccc(C(F)(F)F)cc2)C(=O)c2c(NC(=O)CC3CC3)cnn21 [Co. No. 73]
103 | 2.04e-08 | 292.16 |  | Cc1cccnc1C(=O)Nc1cnn2c1C(=O)N(c1ccc(C(F)(F)F)cc1)C[C@@H]2C [Co. No. 57]
102 | 2.82e-08 |  |  | C[C@H]1CN(c2ccc(C(F)(F)F)cc2)C(=O)c2c(NC(=O)c3ncccc3F)cnn21 [Co. No. 67]
104 | 2.29e-08 |  |  | C[C@H]1CN(c2ccc(Cl)c(Cl)c2)C(=O)c2c(NC(=O)C(F)(F)F)cnn21 [Co. No. 173, N-[(7S)-5-(3,4-Dichlorophenyl)-7-methyl-4-oxo-6,7-dihydropyrazolo[1,5-a]pyrazin-3-yl]-2,2,2-trifluoro-acetamide]
105 | 2.88e-08 |  |  | Cc1cc(C(=O)Nc2cnn3c2C(=O)N(c2ccc(C(F)(F)F)c(Cl)c2)C[C@@H]3C)cnc1NC(C)(C)C [Co. No. 168, 6-(tert-butylamino)-N-[(7S)-5-[3-chloro-4-(trifluoromethyl)phenyl]-7-methyl-4-oxo-6,7-dihydropyrazolo[1,5-a]pyrazin-3-yl]-5-methyl-pyridine-3-carboxamide]
97 | 2.88e-07 |  |  | C[C@H]1CN(c2ccc(C(F)(F)F)cc2)C(=O)c2c(NC(=O)c3ccc(N)nn3)cnn21 [Co. No. 90]
103 | 1.91e-07 | 167.59 |  | C[C@H]1CN(c2ccc(C(F)(F)F)cc2)C(=O)c2c(NC(=O)c3cnn(C)c3)cnn21 [Co. No. 86]
112 | 4.07e-09 | 130.79 |  | Cc1cc(C(=O)Nc2cnn3c2C(=O)N(c2ccc(C(F)(F)F)c(Cl)c2)C[C@@H]3C)c(C)cn1 [Co. No. 158]
105 | 2e-08 | 145.26 |  | C[C@H]1CN(c2ccc(C(F)(F)F)cc2)C(=O)c2c(NC(=O)c3ccncc3)cnn21 [Co. No. 55]
101 | 3.47e-07 | 162.27 |  | C[C@H]1CN(c2ccc(C(F)(F)F)cc2)C(=O)c2c(NC(=O)c3cncn3C)cnn21 [Co. No. 91]
108 | 1.32e-08 | 221.22 |  | C[C@H]1CN(c2ccc(C(F)(F)F)cc2)C(=O)c2c(NC(=O)c3ccc(F)cn3)cnn21 [Co. No. 48]
103 | 1.02e-07 | 189.92 |  | Cc1nc(C(=O)Nc2cnn3c2C(=O)N(c2ccc(C(F)(F)F)cc2)C[C@@H]3C)co1 [Co. No. 81]
103 | 2.82e-07 |  |  | Cc1cnc(NC(C)(C)C)c(C(=O)Nc2cnn3c2C(=O)N(c2ccc(C(F)(F)F)c(Cl)c2)C[C@@H]3C)c1 [Co. No. 167, 2-(tert-Butylamino)-N-[(7S)-5-[3-chloro-4-(trifluoromethyl)phenyl]-7-methyl-4-oxo-6,7-dihydropyrazolo[1,5-a]pyrazin-3-yl]-5-methyl-pyridine-3-carboxamide]
114 | 7.24e-09 | 185.29 |  | C[C@H]1CN(c2ccc(C(F)(F)F)cc2)C(=O)c2c(NC(=O)c3cncc(F)c3)cnn21 [Co. No. 31]
102 | 5.89e-09 |  |  | C[C@H]1CN(c2ccc(C(F)(F)F)cc2)C(=O)c2c(NC(=O)c3ccccn3)cnn21 [Co. No. 24]
101 | 1.26e-06 |  |  | C[C@H]1CN(c2ccc(C(F)(F)F)cc2)C(=O)c2c(NC(=O)c3ccc(O)nn3)cnn21 [Co. No. 92]
109 | 1.38e-07 |  |  | C[C@H]1CN(c2ccc(C(F)(F)F)cc2)C(=O)c2c(NC(=O)c3cc(N)[nH]n3)cnn21 [Co. No. 84, 5-Amino-N-[(7S)-7-methyl-4-oxo-5-[4-(trifluoromethyl)phenyl]-6,7-dihydropyrazolo[1,5-a]pyrazin-3-yl]-1H-pyrazole-3-carboxamide]
104 | 5.5e-09 |  |  | Cc1nccc(C(=O)Nc2cnn3c2C(=O)N(c2ccc(C(F)(F)F)c(Cl)c2)C[C@@H]3C)c1C [Co. No. 155]
103 | 2.95e-08 |  |  | C[C@H]1CN(c2ccc(C(F)(F)F)cc2)C(=O)c2c(NC(=O)c3ccno3)cnn21 [Co. No. 69]
106 | 1.51e-07 |  |  | C[C@H]1CN(c2ccc(C(F)(F)F)cc2)C(=O)c2c(NC(=O)c3ncccn3)cnn21 [Co. No. 98]
 |  | 174.32 |  | Cc1cc(N2C[C@H](C)n3ncc(NC(=O)c4cccnc4N)c3C2=O)ccc1Cl [Co. No. 208]
